Where two headings read alike, the source gives them in different places.
Key:
[1] = DPPH radical-scavenging assay; assay type: biochemical; details: 30 min in the dark, 517 nm; read-out: IC50 against DPPH•
Method: (§1) The stock solutions of the reference antioxidants (ascorbic acid, Trolox, EDTA-Na2) and compounds 3a–j were prepared by dissolving the solid powders in DMSO, obtaining 2 mM stock solutions. Following this, an additional set of solutions (0.2 mM) for each compound was obtained by dilution with DMSO. Absorption spectra of the tested compounds covering the range from 400 nm to 800 nm were recorded, indicating no absorption peaks near the wavelengths employed in the experiments. All measurements in the presented assays were made against blank samples. To quantify the activity of the compounds 3a–j, for the antiradical assays (DPPH and ABTS) and ferrous ion chelation, IC50 was calculated using Equation (1), while for the electron transfer assays (TAC, RP, FRAP and CUPRAC), the reference number of mole equivalent activity for each compound was calculated using Equation (2). (1) radical scavenging (%)=control absorbance−sample absorbance/control absorbance×100 (2) equivalents of control=sample absorbance/control absorbance
The DPPH˙ (2,2-diphenyl-1-picrylhydrazyl) radical-scavenging assay, initially reported by Brand-Williams et al., relies on transferring a hydrogen atom from the antioxidant substrate being analyzed to the stable violet radical of DPPH˙. This action converts DPPH˙ into a nonradical stable yellow compound. The reduction in absorbance of the DPPH˙ at λ = 517 nm corresponds to the quantity of neutralized reagent. To perform the DPPH assay, we took 50, 75, 100, 125, and 150 µL of each sample from their 0.2 mM stock solutions, then we adjusted the volumes with DMSO to ensure all samples reached a uniform final volume. These solutions were mixed with 1 mL of DPPH reagent and incubated in the dark for 30 min, as presented in literature reports.

[2] = ABTS radical cation decolorization assay; assay type: biochemical; details: 10 min, pH 7.4, 734 nm; read-out: IC50 against ABTS•+
Method: as §1
The decolorization assay of the green ABTS^•+ (2,2′-azinobis-(3-ethylbenzothiazoline-6-sulfonic acid) to ABTS, based on the report of Re et al., was conducted following our group’s published report. The chemical stability of the ABTS^•+ reagent prior to use was checked at λ = 734 nm over one hour, ensuring a consistent absorption (approximately equal to 0.7). The reagent was prepared in potassium phosphate buffer (0.1 M, pH = 7.4) and activated overnight using MnO2 [17]. In all cuvettes, we added 100 μL of the tested compound solutions (0.2 mM) in increasing concentrations up to 200 µL and 2000 µL of the ABTS^•+ reagent. The resulting mixtures were thoroughly shaken for 10 min at room temperature, in the absence of light. The optical absorbance of the resulting mixtures was then measured by spectrophotometry at λ = 734 nm.

[3] = Total Antioxidant Capacity (TAC) assay; assay type: biochemical; details: 95 °C, 1.5 h, 695 nm
Method: as §1
The Total Antioxidant Capacity (TAC) assay was conducted following the methodology outlined in our previous publication, which was based on initial reports from the literature. A volume of 10 mL of the reagent (0.6 M H2SO4, 28 mM Na3PO4 and 4 mM (NH4)6Mo7O24) and 1000 µL of the compound and standard solutions dispensed from the 2 mM stock solutions were mixed in sealed glass test tubes and incubated in a water bath at 95 °C for 1.5 h. After cooling the test tubes to room temperature, 1000 µL of each solution was diluted with 1000 µL of water. The absorbance of the solutions was then measured at λ = 695 nm.

[4] = Reducing power (RP) assay; assay type: biochemical; details: 50 °C, 20 min, pH 6.6
Method: as §1
In the reducing power (RP) assay, the tested compounds performed the reduction of ferric ions from potassium ferricyanide, forming ferrocyanide, which gives a blue complex. The protocol followed is an adaptation of previously reported methodologies. In glass test tubes, 1000 µL of solutions containing compounds and standards measured from the 0.2 mM stock solutions were mixed with 400 µL of phosphate buffer (0.2 M, pH = 6.6) and 400 µL of K3[Fe(CN)6] solution (1% w/v). The tubes were sealed and incubated for 20 min in a water bath at 50 °C. After cooling to room temperature, 500 µL of trichloroacetic acid (10% w/w) was added to all test tubes The resulting mixtures were left for 0.5 h at room temperature. Subsequently, 250 µL of the resulting solutions were mixed with 140 µL of FeCl3 solution (0.1% w/v) and 1000 µL of distilled water, and the absorbance of the resulting solutions was determined at λ = 695 nm.

[5] = Ferric-Reducing Antioxidant Potential (FRAP) assay; assay type: biochemical; details: pH 3.6, 593 nm
Method: as §1
The Ferric-Reducing Antioxidant Potential (FRAP) assay relies on the transfer of an electron from the antioxidant being assessed to Fe^3+, resulting in its conversion to Fe^2+. The resulting Fe^2+ ions are then chelated by 2,4,6-tripyridyl-s-triazine, giving a blue-colored complex, with an absorption maximum at λ = 593 nm. A 500 µL amount of the solutions (0.2 mM) of compounds and reference compounds was mixed with 600 µL FRAP reagent and 1200 µL acetate buffer (0.3 M, pH = 3.6), according to previous reports. The resulting solutions were mixed well in the dark, and their absorbance was measured spectrophotometrically.

[6] = CUPRAC (CUPric-Reducing Antioxidant Capacity) assay; assay type: biochemical; details: 30 min, 450 nm
Method: as §1
The electron-donating capacity of compounds was assessed using the CUPRAC (CUPric-Reducing Antioxidant Capacity) method. The protocol for this assay is a modification of the reports of Alam et al., Özyürek et al., and Apak et al.. Volumes of 250 µL of CuCl2 10 mM, 1 mL of ammonium acetate buffer 1 M, and 250 µL of 7.5 mM neocuproine in ethanol were mixed with 125 µL of samples and reference compound solutions (0.2 mM). The mixtures were shaken for 30 min in the dark; after that, their absorbance was determined spectrophotometrically at λ = 450 nm.

[7] = Ferrous ion chelation assay (ferrozine); assay type: biochemical; parameters: key: - represents negligible activity
Method: as §1
To evaluate the ability of compounds to chelate ferrous ions, an assay was performed using an adaptation of Dinis et al.’s initial report. The solutions of the tested compounds (2 mM) were mixed well with 500 µL of FeSO4 (0.125 mM), and 500 µL of ferrozine 0.315 mM. After 10 min, the absorbance of the samples was determined spectrophotometrically at λ = 562 nm. EDTA-Na2 was used as a positive control, due to its exceptional ion chelation properties.

[8] = system: human pulmonary malignant cells (A549); experiment: Alamar Blue cytotoxicity assay, A549 cells; assay type: cell-based; details: for IC50: 48 h exposure, Alamar Blue, read-out: IC50 (±SD) A549; for Selectivity Index: ratio between the calculated IC50 on BJ and A549 cells, 48 h
Method: (§2) BJ cells were maintained in Dulbecco’s modified Eagle’s medium (DMEM) with low glucose (1 g/L), while the A549 cells were seeded in DMEM with high glucose (5 g/L). All media were supplemented with 10% fetal bovine serum (FBS) and 1% Penicillin/Streptomycin. […] Cellular media were refreshed every other day. Cells were either subcultured or used in experiments once they reached a confluency of 80–90%.
(§3) The cytotoxicity of the synthesized compounds was evaluated by Alamar Blue (AB) assays performed on both cell lines, A549 and BJ, after a 48 h exposure, as previously reported.
(§4) Briefly, approximately 7000 A549 cells and 4000 normal BJ cells were seeded in 100 µL cellular media in 96-well plates to achieve a confluency of 70–80% at the end of the experiment and left to attach overnight before exposure. […] Post-exposure, the media were removed, and the AB assay was performed, with cells being incubated with a 200 µM solution of resazurin for 4 h. The obtained fluorescence was measured at λexcitation = 530/25; λemission = 590/35.
(§5) The experiments included three biological replicates, each one including three technical replicates. The negative control (NC) consisted of cells exposed to a cell culture medium containing 0.2% DMSO and was used for data normalization (100%).

[9] = system: normal human foreskin fibroblasts (BJ); experiment: Alamar Blue cytotoxicity assay, BJ cells; assay type: cell-based; details: for IC50: 48 h exposure, Alamar Blue
Method: as §2, §3, §4, §5

For `Oc1ccc(-c2csc(-c3ccccn3)n2)cc1O` [Compound 3h, 4-(2-(pyridin-2-yl)thiazol-4-yl)benzene-1,2-diol], the IC50 [1] was 40.3 µM, the IC50 [2] was 13.5 µM and the “TAC Eq Ascorbic Acid” value [3] was 1.34 Eq Ascorbic Acid. For the same compound, the “RP Eq Ascorbic Acid” value [4] was 2.06 Eq Ascorbic Acid, the “RP Eq Trolox” value [4] was 1.71 Eq Trolox and the “FRAP Eq Trolox” value [5] was 1.03 Eq Trolox. For the same compound, the “CUPRAC Eq Trolox” value [6] was 2.13 Eq Trolox, the “ferrous ion chelation percent” value ([7]; 0.25 µM) was “-” and the “ferrous ion chelation percent” value ([7]; 0.5 µM) was “-”. For the same compound, the “ferrous ion chelation percent” value ([7]; 1 µM) was “-”, the “ferrous ion chelation percent” value ([7]; 1.5 µM) was “-” and the “ferrous ion chelation percent” value ([7]; 2 µM) was “-”. The IC50 ([8]; Homo sapiens, A549) was 13.1 µM, the “Selectivity Index” value [8] was 5.84 and the IC50 ([9]; Homo sapiens, Fibroblast) was 76.7 µM.

For `O=C1O[C@H]([C@@H](O)CO)C(O)=C1O` [Ascorbic acid, reference compound], the IC50 [1] was 53.5 µM.

With `Oc1ccc(-c2csc(-c3ccc(Br)cc3)n2)cc1O` [Compound 3d, 4-(2-(4-bromophenyl)thiazol-4-yl)benzene-1,2-diol] the IC50 [1] was 48.3 µM, the IC50 [2] was 12.6 µM and the “TAC Eq Ascorbic Acid” value [3] was 0.71 Eq Ascorbic Acid. For the same compound, the “RP Eq Ascorbic Acid” value [4] was 1.63 Eq Ascorbic Acid, the “RP Eq Trolox” value [4] was 1.35 Eq Trolox and the “FRAP Eq Trolox” value [5] was 1.09 Eq Trolox. The “CUPRAC Eq Trolox” value [6] was 2.62 Eq Trolox, the “ferrous ion chelation percent” value ([7]; 0.25 µM) was “-” and the “ferrous ion chelation percent” value ([7]; 0.5 µM) was “-”. For the same compound, the “ferrous ion chelation percent” value ([7]; 1 µM) was “-”, the “ferrous ion chelation percent” value ([7]; 1.5 µM) was “-” and the “ferrous ion chelation percent” value ([7]; 2 µM) was “-”. For the same compound, the IC50 ([8]; Homo sapiens, A549) was 6.08 µM, the “Selectivity Index” value [8] was 5.66 and the IC50 ([9]; Homo sapiens, Fibroblast) was 34.4 µM.

In the case of `Oc1ccc(-c2csc(-c3ccc(Cl)cc3)n2)cc1O` [Compound 3c], the IC50 [1] is reported as 47.8 µM, the IC50 [2] is reported as 15.7 µM and the “TAC Eq Ascorbic Acid” value [3] is reported as 0.83 Eq Ascorbic Acid. For the same compound, the “RP Eq Ascorbic Acid” value [4] was 1.47 Eq Ascorbic Acid, the “RP Eq Trolox” value [4] was 1.22 Eq Trolox and the “FRAP Eq Trolox” value [5] was 1.10 Eq Trolox. For the same compound, the “CUPRAC Eq Trolox” value [6] was 2.38 Eq Trolox, the “ferrous ion chelation percent” value ([7]; 0.25 µM) was “-” and the “ferrous ion chelation percent” value ([7]; 0.5 µM) was “-”. For the same compound, the “ferrous ion chelation percent” value ([7]; 1 µM) was “-”, the “ferrous ion chelation percent” value ([7]; 1.5 µM) was “-” and the “ferrous ion chelation percent” value ([7]; 2 µM) was “-”. For the same compound, the IC50 [8] was 8.16 µM, the “Selectivity Index” value [8] was 4.39 and the IC50 [9] was 35.8 µM.

In the case of `Oc1ccc(-c2csc(-c3ccncc3)n2)cc1O` [Compound 3g, 4-(2-(pyridin-4-yl)thiazol-4-yl)benzene-1,2-diol], the IC50 [1] is reported as 36.7 µM, the IC50 [2] is reported as 7.59 µM and the “TAC Eq Ascorbic Acid” value [3] is reported as 0.64 Eq Ascorbic Acid. The “RP Eq Ascorbic Acid” value [4] was 2.04 Eq Ascorbic Acid, the “RP Eq Trolox” value [4] was 1.69 Eq Trolox and the “FRAP Eq Trolox” value [5] was 1.63 Eq Trolox. For the same compound, the “CUPRAC Eq Trolox” value [6] was 3.60 Eq Trolox, the “ferrous ion chelation percent” value ([7]; 0.25 µM) was “-” and the “ferrous ion chelation percent” value ([7]; 0.5 µM) was “-”. For the same compound, the “ferrous ion chelation percent” value ([7]; 1 µM) was “-”, the “ferrous ion chelation percent” value ([7]; 1.5 µM) was “-” and the “ferrous ion chelation percent” value ([7]; 2 µM) was “-”. The IC50 ([8]; Homo sapiens, A549) was 7.34 µM, the “Selectivity Index” value [8] was >13.62 and the IC50 ([9]; Homo sapiens, Fibroblast) was > 100 µM. The “decrease of viability of BJ cells” value ([9]; highest tested dose, 48 h) was “approximately 20%”.

`Cc1c(C)c2c(c(C)c1O)CCC(C)(C(=O)O)O2` (stereo not drawn) [Trolox, reference compound] showed an IC50 [1] of 38.1 µM and an IC50 [2] of 15.9 µM.

In the case of `O=C([O-])CN(CCN(CC(=O)[O-])CC(=O)O)CC(=O)O.[Na+].[Na+]` [EDTA–Na2, EDTA-Na2, reference compound], the “ferrous ion chelation percent” value ([7]; 0.25 µM) is reported as 47.21%, the “ferrous ion chelation percent” value ([7]; 0.5 µM) is reported as 55.24% and the “ferrous ion chelation percent” value ([7]; 1 µM) is reported as 73.41%. The “ferrous ion chelation percent” value ([7]; 1.5 µM) was 86.52% and the “ferrous ion chelation percent” value ([7]; 2 µM) was 96.20%.

From paper PMC11351550, “Synthesis, Cytotoxicity and Antioxidant Activity Evaluation of Some Thiazolyl–Catechol Compounds” (Antioxidants, 2024)
